Patent US9365619B2, “IgG-binding peptide and method for detecting and purifying IgG using same” (Otsuka Chemical Co., Ltd., priority 2011, dated 2016)
Where two headings read alike, the source gives them in different places. Bridge positions count the residues as written; N and C are the ends. Peptide text beside a SMILES is read from it.

Target: human IgG
Assay: Surface plasmon resonance (SPR) analysis of synthetic peptide binding to human IgG
Conditions: for fold increase in affinity (fold decrease in Kd value): relative to original peptide GFc-C35-3/15; for affinity compared with the parent peptide, in words: compared with GFc-C35-3/15 (T7H, N8R); for affinity compared with the original peptide, in words: compared with GFc-C35-3/15
Method: In order to narrow down the amino acid region to be studied, a peptide in which one amino acid was deleted from each end of GFc-C35 (GFc-C35-2/16) and a peptide in which two amino acids were deleted from each end of CFc-C35 (GFc-C35-3/15) were synthesized. Among these peptides, based on the GFc-C35-3/15 synthetic peptide, the effect of the introduction of amino acid mutations on affinity was evaluated. That is, the contribution of each amino acid substitution to affinity was evaluated by synthesizing peptides substituted with frequently or occasionally observed amino acids obtained from the phage libraries and subjecting the resulting synthetic peptides to binding analysis.
Based on the synthetic peptide C35A, peptides substituted with amino acids observed at high frequency in the aforementioned phage libraries were synthesized by introducing amino acid mutations, and in a similar manner to the above, their binding to human IgG was analyzed by surface plasmon resonance (SPR) analysis to evaluate the contribution of each amino acid substitution to affinity.

[1] = SPR, synthetic peptide binding to human IgG, read-out: Kd
[2] = SPR sensorgram analysis, human IgG
[3] = SPR sensorgram analysis, human IgG, read-out: affinity (Kd value)

Row | Kd [1] | SMILES | also measured
1 | 25000 nM | CC(C)C[C@@H]1NC(=O)[C@H](CC(N)=O)NC(=O)CNC(=O)[C@H](CC(N)=O)NC(=O)[C@H]([C@@H](C)O)NC(=O)[C@H](Cc2ccc(O)cc2)NC(=O)[C@H]([C@@H](C)O)NC(=O)[C@@H](NC(=O)[C@H](CC(=O)O)NC(=O)[C@@H]2CCCN2)CSSC[C@@H](C(=O)N[C@H](C(=O)N[C@@H](Cc2ccccc2)C(N)=O)[C@@H](C)O)NC(=O)[C@H](Cc2c[nH]c3ccccc23)NC(=O)[C@H](C(C)C)NC1=O [GFc-C35-2/16, PDCTYTNGNLVWCTF] (H-PDCTYTNGNLVWCTF-NH2; disulfide 3-13) | 
2 | 1100 nM | CC(C)C[C@@H]1NC(=O)[C@H](CC(N)=O)NC(=O)CNC(=O)[C@H](CCCNC(=N)N)NC(=O)[C@H](Cc2c[nH]cn2)NC(=O)[C@H](Cc2ccc(O)cc2)NC(=O)[C@H]([C@@H](C)O)NC(=O)[C@@H](NC(=O)[C@@H](N)CC(=O)O)CSSC[C@@H](C(=O)N[C@H](C(N)=O)[C@@H](C)O)NC(=O)[C@H](Cc2c[nH]c3ccccc23)NC(=O)[C@H](C(C)C)NC1=O [GFc-C35-3/15 (T7H, N8R), DCTYHRGNLVWCT] (H-DCTYHRGNLVWCT-NH2; disulfide 2-12) | 
3 | 11.4 nM | CC(C)C[C@@H]1NC(=O)[C@H](CCC(=O)O)NC(=O)CNC(=O)[C@H](CCCNC(=N)N)NC(=O)[C@H](Cc2c[nH]cn2)NC(=O)[C@H](Cc2ccc(O)cc2)NC(=O)[C@H](C)NC(=O)[C@@H](NC(=O)[C@H](CC(=O)O)NC(=O)[C@@H]2CCCN2C(=O)CN)CSSC[C@@H](C(=O)N[C@H](C(=O)N[C@@H](Cc2c[nH]cn2)C(=O)N[C@@H](Cc2c[nH]cn2)C(N)=O)[C@@H](C)O)NC(=O)[C@H](Cc2c[nH]c3ccccc23)NC(=O)[C@H](C(C)C)NC1=O [C35A (F16H), GPDCAYHRGELVWCTHH] (H-GPDCAYHRGELVWCTHH-NH2; disulfide 4-14) | 
4 |  | CC(C)C[C@@H]1NC(=O)[C@H](CCC(=O)O)NC(=O)CNC(=O)[C@H](CCCNC(=N)N)NC(=O)[C@H](Cc2c[nH]cn2)NC(=O)[C@H](Cc2ccc(O)cc2)NC(=O)[C@H](C)NC(=O)[C@@H](NC(=O)[C@@H](N)CC(=O)O)CSSC[C@@H](C(=O)N[C@H](C(N)=O)[C@@H](C)O)NC(=O)[C@H](Cc2c[nH]c3ccccc23)NC(=O)[C@H](C(C)C)NC1=O [GFc-C35-3/15 (T5A, T7H, N8R, N10E), DCAYHRGELVWCT] (H-DCAYHRGELVWCT-NH2; disulfide 2-12) | association rate constant ka [2]: 4.6×10^5 M^−1S^−1; dissociation rate constant kd [2]: 2.5×10^−2 S^−1; Kd [3]: 54 nM; fold increase in affinity (fold decrease in Kd value): approximately 2400 fold
5 | 250 nM | CC(C)C[C@@H]1NC(=O)[C@H](CC(N)=O)NC(=O)CNC(=O)[C@H](CCCNC(=N)N)NC(=O)[C@H](Cc2c[nH]cn2)NC(=O)[C@H](Cc2ccc(O)cc2)NC(=O)[C@H](C)NC(=O)[C@@H](NC(=O)[C@@H](N)CC(=O)O)CSSC[C@@H](C(=O)N[C@H](C(N)=O)[C@@H](C)O)NC(=O)[C@H](Cc2c[nH]c3ccccc23)NC(=O)[C@H](C(C)C)NC1=O [GFc-C35-3/15 (T7H, N8R, T5A), DCAYHRGNLVWCT] (H-DCAYHRGNLVWCT-NH2; disulfide 2-12) | affinity compared with the parent peptide, in words: affinity-enhancing effect
6 | 14.4 nM | CC(C)C[C@@H]1NC(=O)[C@H](CCC(=O)O)NC(=O)CNC(=O)[C@H](CCCNC(=N)N)NC(=O)[C@H](Cc2c[nH]cn2)NC(=O)[C@H](Cc2ccc(O)cc2)NC(=O)[C@H](C)NC(=O)[C@@H](NC(=O)[C@H](CC(=O)O)NC(=O)[C@@H]2CCCN2C(=O)CN)CSSC[C@@H](C(=O)N[C@@H](CO)C(=O)N[C@@H](Cc2ccccc2)C(=O)N[C@@H](Cc2c[nH]cn2)C(N)=O)NC(=O)[C@H](Cc2c[nH]c3ccccc23)NC(=O)[C@H](C(C)C)NC1=O [C35A (T15S), GPDCAYHRGELVWCSFH] (H-GPDCAYHRGELVWCSFH-NH2; disulfide 4-14) | 
7 | 270 nM | CC(C)C[C@@H]1NC(=O)[C@H](CCC(=O)O)NC(=O)CNC(=O)[C@H](CCCNC(=N)N)NC(=O)[C@H](Cc2c[nH]cn2)NC(=O)[C@H](Cc2ccc(O)cc2)NC(=O)[C@H]([C@@H](C)O)NC(=O)[C@@H](NC(=O)[C@@H](N)CC(=O)O)CSSC[C@@H](C(=O)N[C@H](C(N)=O)[C@@H](C)O)NC(=O)[C@H](Cc2c[nH]c3ccccc23)NC(=O)[C@H](C(C)C)NC1=O [GFc-C35-3/15 (T7H, N8R, N10E), DCTYHRGELVWCT] (H-DCTYHRGELVWCT-NH2; disulfide 2-12) | affinity compared with the parent peptide, in words: affinity-enhancing effect
8 | 8000 nM | CC(C)C[C@@H]1NC(=O)[C@H](CC(N)=O)NC(=O)CNC(=O)[C@H](CCCNC(=N)N)NC(=O)[C@H]([C@@H](C)O)NC(=O)[C@H](Cc2ccc(O)cc2)NC(=O)[C@H]([C@@H](C)O)NC(=O)[C@@H](NC(=O)[C@@H](N)CC(=O)O)CSSC[C@@H](C(=O)N[C@H](C(N)=O)[C@@H](C)O)NC(=O)[C@H](Cc2c[nH]c3ccccc23)NC(=O)[C@H](C(C)C)NC1=O [GFc-C35-3/15 (N8R), DCTYTRGNLVWCT] (H-DCTYTRGNLVWCT-NH2; disulfide 2-12) | affinity compared with the original peptide, in words: greatly increased affinity; fold increase in affinity (fold decrease in Kd value): approximately 18 fold
9 | 83000 nM | CC(C)C[C@@H]1NC(=O)[C@H](CC(N)=O)NC(=O)CNC(=O)[C@H](CC(N)=O)NC(=O)[C@H](CCCNC(=N)N)NC(=O)[C@H](Cc2ccc(O)cc2)NC(=O)[C@H]([C@@H](C)O)NC(=O)[C@@H](NC(=O)[C@@H](N)CC(=O)O)CSSC[C@@H](C(=O)N[C@H](C(N)=O)[C@@H](C)O)NC(=O)[C@H](Cc2c[nH]c3ccccc23)NC(=O)[C@H](C(C)C)NC1=O [GFc-C35-3/15 (T7R), DCTYRNGNLVWCT] (H-DCTYRNGNLVWCT-NH2; disulfide 2-12) | 
10 | 61000 nM | CC(C)C[C@@H]1NC(=O)[C@H](CC(N)=O)NC(=O)CNC(=O)[C@H](CC(N)=O)NC(=O)[C@H]([C@@H](C)O)NC(=O)[C@H](Cc2ccc(O)cc2)NC(=O)[C@H](C)NC(=O)[C@@H](NC(=O)[C@@H](N)CC(=O)O)CSSC[C@@H](C(=O)N[C@H](C(N)=O)[C@@H](C)O)NC(=O)[C@H](Cc2c[nH]c3ccccc23)NC(=O)[C@H](C(C)C)NC1=O [GFc-C35-3/15 (T5A), DCAYTNGNLVWCT] (H-DCAYTNGNLVWCT-NH2; disulfide 2-12) | affinity compared with the original peptide, in words: highest affinity
11 | 11 nM | CC(C)C[C@@H]1NC(=O)[C@H](CCC(=O)O)NC(=O)CNC(=O)[C@H](CCCNC(=N)N)NC(=O)[C@H](Cc2c[nH]cn2)NC(=O)[C@H](Cc2ccc(O)cc2)NC(=O)[C@H](C)NC(=O)[C@@H](NC(=O)[C@H](CC(=O)O)NC(=O)[C@@H]2CCCN2C(=O)[C@@H](N)CO)CSSC[C@@H](C(=O)N[C@H](C(=O)N[C@@H](Cc2ccccc2)C(=O)N[C@@H](Cc2ccc(O)cc2)C(N)=O)[C@@H](C)O)NC(=O)[C@H](Cc2c[nH]c3ccccc23)NC(=O)[C@H](C(C)C)NC1=O [C35A (G1S, H17Y), SPDCAYHRGELVWCTFY] (H-SPDCAYHRGELVWCTFY-NH2; disulfide 4-14) | 
12 | 12 nM | CC(C)C[C@@H]1NC(=O)[C@H](CCC(=O)O)NC(=O)CNC(=O)[C@H](CCCNC(=N)N)NC(=O)[C@H](Cc2c[nH]cn2)NC(=O)[C@H](Cc2ccc(O)cc2)NC(=O)[C@H](C)NC(=O)[C@@H](NC(=O)[C@H](CC(=O)O)NC(=O)[C@@H]2CCCN2C(=O)CN)CSSC[C@@H](C(=O)N[C@H](C(=O)N[C@@H](Cc2ccccc2)C(=O)N[C@@H](Cc2ccc(O)cc2)C(N)=O)[C@@H](C)O)NC(=O)[C@H](Cc2c[nH]c3ccccc23)NC(=O)[C@H](C(C)C)NC1=O [C35A (H17Y), GPDCAYHRGELVWCTFY] (H-GPDCAYHRGELVWCTFY-NH2; disulfide 4-14) | 
13 | 42 nM | CC(C)C[C@@H]1NC(=O)[C@H](CCC(=O)O)NC(=O)CNC(=O)[C@H](CCCNC(=N)N)NC(=O)[C@H](Cc2c[nH]cn2)NC(=O)[C@H](Cc2ccc(O)cc2)NC(=O)[C@H](C)NC(=O)[C@@H](NC(=O)[C@H](CCCNC(=N)N)NC(=O)[C@@H]2CCCN2C(=O)CN)CSSC[C@@H](C(=O)N[C@@H](CO)C(=O)N[C@@H](Cc2ccccc2)C(=O)N[C@@H](Cc2c[nH]cn2)C(N)=O)NC(=O)[C@H](Cc2c[nH]c3ccccc23)NC(=O)[C@H](C(C)C)NC1=O [C35A (D3R, T15S), GPRCAYHRGELVWCSFH] (H-GPRCAYHRGELVWCSFH-NH2; disulfide 4-14) | 
14 | 260 nM | CC(C)C[C@@H]1NC(=O)[C@H](CCC(=O)O)NC(=O)CNC(=O)[C@H](CCCNC(=N)N)NC(=O)[C@H](Cc2c[nH]cn2)NC(=O)[C@H](Cc2c[nH]c3ccccc23)NC(=O)[C@H](C)NC(=O)[C@@H](NC(=O)[C@@H](N)CC(=O)O)CSSC[C@@H](C(=O)N[C@H](C(N)=O)[C@@H](C)O)NC(=O)[C@H](Cc2c[nH]c3ccccc23)NC(=O)[C@H](C(C)C)NC1=O [GFc-C35-3/15 (T5A, Y6W, T7H, N8R, N10E), DCAWHRGELVWCT] | association rate constant ka [2]: 5.4×10^4 M^−1S^−1; dissociation rate constant kd [2]: 1.4×10^−2 S^−1; Kd [3]: 257 nM; association rate constant ka relative to GFc-C35-3/15 (T5A, T7H, N8R, N10E) (SPR, human IgG): ⅛
15 | 34000 nM | CC(C)C[C@@H]1NC(=O)[C@H](CC(N)=O)NC(=O)CNC(=O)[C@H](CC(N)=O)NC(=O)[C@H]([C@@H](C)O)NC(=O)[C@H](Cc2ccc(O)cc2)NC(=O)[C@H]([C@@H](C)O)NC(=O)[C@@H](NC(=O)[C@@H](N)CC(=O)O)CSSC[C@@H](C(=O)N[C@@H](CO)C(N)=O)NC(=O)[C@H](Cc2c[nH]c3ccccc23)NC(=O)[C@H](C(C)C)NC1=O [GFc-C35-3/15 (T15S), DCTYTNGNLVWCS] (H-DCTYTNGNLVWCS-NH2; disulfide 2-12) | 
